{"source": "patent US20210205292A1", "about": "“INHIBITORS OF CREB-CBP INTERACTION FOR TREATMENT OF LEUKEMIA” (The Board of Trustees of the Leland Stanford Junior …, priority 2016, published 2021)", "key": {"CREB target genes": {"test_system": "CREB target genes", "assay": "RT-PCR of CREB target genes in GFP+ bone marrow cells of engrafted NSG mice", "type": "in vivo, mouse", "conditions": "2.3 mg/kg, three once-daily treatments after ten-day engraftment", "method": "To directly evaluate the effects of Compound A on CREB transcriptional activity in vivo, six NSG mice were injected with 2×10^6 HL-60 expressing GFP. After a ten-day engraftment period, the mice received three once-daily treatments of either 2.3 mg/kg Compound A or DMSO. The mice were then sacrificed and GFP+ bone marrow cells were sorted and analyzed for transcriptional changes in validated CREB target genes. This experiment recapitulated in vitro findings (FIG. 4, panel E)."}, "[1]": {"test_system": "CREB-driven promoter (CRE)", "assay": "CREB-driven (CRE) luciferase reporter in KG-1 cells", "type": "cell-based", "conditions": "6 hours", "method": "KG-1 cell lines were created to express luciferase in a CREB-dependent or non-CREB-dependent fashion using lentiviral gene delivery. Cells were sorted for mCherry expression by flow cytometry and selected with puromycin. Luciferase activity was measured on a […] using the Promega Luciferase Activity Kit (Promega) per manufacturer's instructions following six hours of treatment with Compound A or 0.1% DMSO. The split Renilla luciferase complementation assay has been described previously (Li BX, and Xiao X. Discovery of a small-molecule inhibitor of the KIX-KID interaction. Chembiochem: a European journal of chemical biology. 2009; 10(17):2721-4). In this assay, the KID and KIX domains were fused to the N- and C-terminal regions of Renilla luciferase, respectively. Once KIX binds phosphorylated KID, the Renilla luciferase regions were brought together, resulting in luciferase activity.\nTo test the ability of Compound A to disrupt CREB-CBP binding in cells, a split Renilla luciferase complementation assay was performed. […] This early timepoint was selected to permit accurate reporter gene activity measurement prior to the onset of anticipated global cell dysfunction or death induced by Compound A. Treatment with 3 μM Compound A reduced luciferase activity by 33.2±7.7% at this timepoint. […] Thus, Compound A inhibits CREB function through disruption of CREB:CBP interaction."}, "H3K27 acetylation": {"test_system": "H3K27 acetylation", "assay": "Western blot of total and H3K27-specific histone acetylation", "type": "cell-based", "conditions": "6 or 24 hours", "method": "Cells were lysed in RIPA buffer (Sigma), and the protein concentrations were determined by BCA assay (Thermo Scientific Pierce). Lysates were solubilized in 6×SDS PAGE buffer and […] of protein was loaded into 6-15% SDS PAGE gels, pheresed, and then transferred onto […] PVDF membrane (Millipore). Primary antibodies were applied at a dilution of 1:1000. Anti-Bcl-2, -Bax, -Mcl-1, -Bcl-XL, -Cyclin A and -Cyclin D1 antibodies were purchased from Cell Signaling Technologies. Anti-total acetylated histone and -ac-H3K27 were purchased from Santa Cruz Biotechnologies. Anti-actin and -CREB antibodies were purchased from upstate. Secondary antibodies were used at a 1:2500 dilution and purchased from Thermo Scientific/Pierce. WesternBright ECL was used for image acquisition on Image Lab software (Bio-Rad)."}, "[2]": {"test_system": "human AML patient sample cells (#186)", "assay": "Primary AML patient sample (#186) xenograft in NSG mice", "type": "in vivo", "conditions": "2.3 mg/kg IV once daily", "method": "For AML xenograft mouse experiments, HL-60 cells (2×10^6) expressing firefly luciferase and GFP, or cryopreserved human AML patient cells (5×10^6), were injected through the tail vein into NOD.Cg-prkdc^scid Il2rg^tm1WjlSzJ (NSG) mice. Mice were then Compound A or 10% DMSO, injected intravenously by tail vein daily, until death or an endpoint was reached (moribundity) in accordance with the animal care institutional guidelines. All mouse experiments were subject to institutional approval by Stanford University Institutional Animal Care and Use Committee. Leukemia progression in mice at the indicated time points was monitored using an in vivo IVIS 100 bioluminescenceoptical imaging system (Xenogen Corporation). D-Luciferin (Promega) dissolved in sterile phosphate-buffered saline was injected intraperitoneally at a dose of […], 15 minutes before measuring the luminescent signal. General anesthesia was induced with […] and continued during the procedure using a nose cone. […]\nTo examine the efficacy of CREB inhibition in an in vivo model of AML, 4-6 week old NOD.Cg-Prkdc^scid Il2rg^tm1WjlSzJ (NSG) mice were tail-vein injected with HL-60 AML cells (2×10^6) expressing Firefly luciferase and GFP. […] The efficacy of Compound A was also assessed in a mouse xenograft model using primary AML cell sample (patient sample #186), using similar methods."}, "HL-60 AML cells": {"test_system": "HL-60 AML cells", "assay": "HL-60 AML xenograft in NSG mice", "type": "in vivo", "conditions": "for GFP+ cells in bone marrow / GFP+ cells in spleen / spleen weight: endpoint", "method": "For AML xenograft mouse experiments, HL-60 cells (2×10^6) expressing firefly luciferase and GFP, or cryopreserved human AML patient cells (5×10^6), were injected through the tail vein into NOD.Cg-prkdc^scid Il2rg^tm1WjlSzJ (NSG) mice. Mice were then Compound A or 10% DMSO, injected intravenously by tail vein daily, until death or an endpoint was reached (moribundity) in accordance with the animal care institutional guidelines. All mouse experiments were subject to institutional approval by Stanford University Institutional Animal Care and Use Committee. Leukemia progression in mice at the indicated time points was monitored using an in vivo IVIS 100 bioluminescenceoptical imaging system (Xenogen Corporation). D-Luciferin (Promega) dissolved in sterile phosphate-buffered saline was injected intraperitoneally at a dose of 2.5 mg/kg, 15 minutes before measuring the luminescent signal. General anesthesia was induced with […] and continued during the procedure using a nose cone. Analysis was performed on Living Image In Vivo imaging software (Perkin-Elmer). Imaging was performed in collaboration with the Stanford Small Animal Imaging Facility. Bone marrow was aspirated from bone marrow cavities, and GFP+ cells were sorted using the FACSCalibur flow cytometer (BD Biosciences).\nTo examine the efficacy of CREB inhibition in an in vivo model of AML, 4-6 week old NOD.Cg-Prkdc^scid Il2rg^tm1WjlSzJ (NSG) mice were tail-vein injected with HL-60 AML cells (2×10^6) expressing Firefly luciferase and GFP. Groups of ten mice received 10% DMSO or 2.3 mg/kg Compound A intravenously (IV) once daily starting the day after cell injection (immediate treatment groups), or one of the same two treatments starting seven days after AML cell injection (delayed treatment groups). This dose of Compound A was selected, as it was the maximum deliverable IV injection concentration and volume in 10% DMSO solution per gram mouse body weight. […] The efficacy of Compound A was also assessed in a mouse xenograft model using primary AML cell sample (patient sample #186), using similar methods."}, "[3]": {"conditions": "delayed treatment group (from day 7), 2.3 mg/kg IV once daily"}, "[4]": {"conditions": "immediate treatment group, 2.3 mg/kg IV once daily"}}, "note": "Entries after “also recorded” stand apart in the source; their conditions may differ."}
{"smiles": "N#Cc1ccc(NC(=O)c2cc3ccccc3cc2O)cc1", "note": "[Compound A, N-(4-cyanophenyl)-3-hydroxy-2-naphthamide]", "values": [{"measurement": "expression of CREB target genes in vivo (RT-PCR)", "setting": "CREB target genes", "value": "significantly reduced expression of all genes shown"}, {"measurement": "reduction of CREB-driven luciferase activity", "setting": "[1]; 3 μM", "value": "33.2±7.7", "unit": "%"}, {"measurement": "CREB-driven luciferase activity", "setting": "[1]; KG-1 cells, 3, 10 and 30 μM", "value": "significantly decreased; also recorded: reduced by Compound A in a dose-dependent fashion"}, {"measurement": "H3K27 acetylation (Western blot)", "setting": "H3K27 acetylation", "value": "specific decrease in H3K27 acetylation"}, {"measurement": "toxicity", "setting": "[2]; 80 days", "value": "None of the mice treated for 80 days experienced any toxicity"}, {"measurement": "survival (Kaplan-Meier)", "setting": "[2]; versus DMSO-treated mice", "value": "significant survival advantage"}, {"measurement": "mean weight of visceral tumors", "setting": "HL-60 AML cells; Compound A-treated group", "value": "0.027 ± 0.019", "unit": "g"}, {"measurement": "mice that developed visible visceral tumors (chloromas)", "setting": "HL-60 AML cells; Compound A-treated group", "value": "4 of 10"}, {"measurement": "liver weights", "setting": "HL-60 AML cells; across groups", "value": "no differences in liver weights"}, {"measurement": "circulating leukemia cells (blood counts and smear)", "setting": "HL-60 AML cells; at the time of sacrifice", "value": "none of the Compound A-treated mice had detectable circulating leukemia cells"}, {"measurement": "GFP+ cells in bone marrow", "setting": "HL-60 AML cells; delayed group", "value": "19.9±8.22", "unit": "%"}, {"measurement": "GFP+ cells in spleen", "setting": "HL-60 AML cells; delayed group", "value": "4.1±1.44", "unit": "%"}, {"measurement": "spleen weight", "setting": "HL-60 AML cells; delayed group", "value": "50.6 ± 9.1", "unit": "mg"}, {"measurement": "mean survival", "setting": "HL-60 AML cells; [3]", "value": 26.4, "unit": "days"}, {"measurement": "median survival", "setting": "HL-60 AML cells; [3]", "value": 24, "unit": "days"}, {"measurement": "average radiance (bioluminescence imaging)", "setting": "HL-60 AML cells; delayed treatment, 2.3 mg/kg IV once daily, day 17", "value": "2.8×10^5 p/sec/cm^2/sr"}, {"measurement": "GFP+ cells in bone marrow", "setting": "HL-60 AML cells; immediate group", "value": "9.3±1.28", "unit": "%"}, {"measurement": "GFP+ cells in spleen", "setting": "HL-60 AML cells; immediate group", "value": "0.64±0.27", "unit": "%"}, {"measurement": "spleen weight", "setting": "HL-60 AML cells; immediate group", "value": "43.3 ± 3.6", "unit": "mg"}, {"measurement": "mean survival", "setting": "HL-60 AML cells; [4]", "value": 31.2, "unit": "days"}, {"measurement": "median survival", "setting": "HL-60 AML cells; [4]", "value": 31, "unit": "days"}]}
